Publication PMC9150124, “Design of a Potent, Selective, and Brain-Penetrant Inhibitor of Wnt-Deactivating Enzyme Notum by Optimization of a Crystallographic Fragment Hit” (Journal of Medicinal Chemistry, 2022)
pIC50: −log10 of the molar value. Like-named read-outs stand apart in the source and are kept apart here.

Legend:
CYP2D6 = CYP2D6 (Homo sapiens, UniProt P10635); assay: CYP450 inhibition in HLM
Caco-2 cells = assay: Permeability using Caco-2 cell monolayer; conditions: 2.00 μM
[1] = Permeability using Caco-2 cell monolayer; conditions: human
[2] = target: kinase named in conditions (Homo sapiens, UniProt O00329); assay: SelectScreen kinase profiling, SSBK Adapta SP Technology; assay type: biochemical; conditions: PIK3CD/PIK3R1 (p110 delta/p85 alpha), 10 μM
[3] = target: kinase named in conditions (Homo sapiens, UniProt Q14012); assay: as above; assay type: biochemical; conditions: CAMK1 (CaMK1), 10 μM
[4] = target: kinase named in conditions (Homo sapiens, UniProt P50613); assay: as above; assay type: biochemical; conditions: CDK7/cyclin H/MNAT1, 10 μM
[5] = target: kinase named in conditions (Homo sapiens, UniProt O60285); assay: as above; assay type: biochemical; conditions: NUAK1 (ARK5), 10 μM
[6] = target: kinase named in conditions (Homo sapiens, UniProt Q99755); assay: as above; assay type: biochemical; conditions: PIP5K1A, 10 μM
[7] = target: kinase named in conditions (Homo sapiens, UniProt P11802); assay: as above; assay type: biochemical
[8] = system: kinase named in conditions; assay: as above; assay type: biochemical
[9] = target: kinase named in conditions (Homo sapiens, UniProt O14986); assay: as above; assay type: biochemical; conditions: PIP5K1B, 10 μM
[10] = target: kinase named in conditions (Homo sapiens, UniProt Q9UBF8); assay: as above; assay type: biochemical; conditions: PI4KB (PI4K beta), 10 μM
[11] = target: kinase named in conditions (Homo sapiens, UniProt P42336); assay: as above; assay type: biochemical; conditions: 10 μM
[12] = target: kinase named in conditions (Homo sapiens, UniProt P50750); assay: as above; assay type: biochemical; conditions: CDK9/cyclin T1, 10 μM
[13] = target: kinase named in conditions (Homo sapiens, UniProt O60331); assay: as above; assay type: biochemical; conditions: PIP5K1C, 10 μM
kinase named in conditions (Homo sapiens, UniProt O60331), sequence (O60331 whole entry): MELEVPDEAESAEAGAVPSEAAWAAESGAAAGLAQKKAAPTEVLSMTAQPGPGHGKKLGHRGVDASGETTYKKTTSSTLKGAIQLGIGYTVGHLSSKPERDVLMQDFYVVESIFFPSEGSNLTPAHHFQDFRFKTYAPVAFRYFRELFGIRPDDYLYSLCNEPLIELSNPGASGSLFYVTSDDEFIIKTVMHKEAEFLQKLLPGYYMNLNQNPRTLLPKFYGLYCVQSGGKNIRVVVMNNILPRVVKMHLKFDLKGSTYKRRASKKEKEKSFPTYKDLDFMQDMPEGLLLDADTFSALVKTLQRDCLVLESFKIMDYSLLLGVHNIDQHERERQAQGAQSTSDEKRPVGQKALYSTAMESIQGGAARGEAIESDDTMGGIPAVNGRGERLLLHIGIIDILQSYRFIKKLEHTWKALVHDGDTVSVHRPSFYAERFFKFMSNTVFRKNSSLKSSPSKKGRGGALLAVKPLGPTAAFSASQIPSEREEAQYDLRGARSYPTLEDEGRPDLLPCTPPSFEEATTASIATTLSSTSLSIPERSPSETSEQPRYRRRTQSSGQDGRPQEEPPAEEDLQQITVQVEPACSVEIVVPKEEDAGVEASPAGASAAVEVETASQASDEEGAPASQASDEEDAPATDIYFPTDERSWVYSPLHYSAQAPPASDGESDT

[14] = target: kinase named in conditions (Homo sapiens, UniProt P42356); assay: as above; assay type: biochemical; conditions: PI4KA (PI4K alpha), 10 μM
kinase named in conditions (Homo sapiens, UniProt P42356), sequence (P42356 whole entry): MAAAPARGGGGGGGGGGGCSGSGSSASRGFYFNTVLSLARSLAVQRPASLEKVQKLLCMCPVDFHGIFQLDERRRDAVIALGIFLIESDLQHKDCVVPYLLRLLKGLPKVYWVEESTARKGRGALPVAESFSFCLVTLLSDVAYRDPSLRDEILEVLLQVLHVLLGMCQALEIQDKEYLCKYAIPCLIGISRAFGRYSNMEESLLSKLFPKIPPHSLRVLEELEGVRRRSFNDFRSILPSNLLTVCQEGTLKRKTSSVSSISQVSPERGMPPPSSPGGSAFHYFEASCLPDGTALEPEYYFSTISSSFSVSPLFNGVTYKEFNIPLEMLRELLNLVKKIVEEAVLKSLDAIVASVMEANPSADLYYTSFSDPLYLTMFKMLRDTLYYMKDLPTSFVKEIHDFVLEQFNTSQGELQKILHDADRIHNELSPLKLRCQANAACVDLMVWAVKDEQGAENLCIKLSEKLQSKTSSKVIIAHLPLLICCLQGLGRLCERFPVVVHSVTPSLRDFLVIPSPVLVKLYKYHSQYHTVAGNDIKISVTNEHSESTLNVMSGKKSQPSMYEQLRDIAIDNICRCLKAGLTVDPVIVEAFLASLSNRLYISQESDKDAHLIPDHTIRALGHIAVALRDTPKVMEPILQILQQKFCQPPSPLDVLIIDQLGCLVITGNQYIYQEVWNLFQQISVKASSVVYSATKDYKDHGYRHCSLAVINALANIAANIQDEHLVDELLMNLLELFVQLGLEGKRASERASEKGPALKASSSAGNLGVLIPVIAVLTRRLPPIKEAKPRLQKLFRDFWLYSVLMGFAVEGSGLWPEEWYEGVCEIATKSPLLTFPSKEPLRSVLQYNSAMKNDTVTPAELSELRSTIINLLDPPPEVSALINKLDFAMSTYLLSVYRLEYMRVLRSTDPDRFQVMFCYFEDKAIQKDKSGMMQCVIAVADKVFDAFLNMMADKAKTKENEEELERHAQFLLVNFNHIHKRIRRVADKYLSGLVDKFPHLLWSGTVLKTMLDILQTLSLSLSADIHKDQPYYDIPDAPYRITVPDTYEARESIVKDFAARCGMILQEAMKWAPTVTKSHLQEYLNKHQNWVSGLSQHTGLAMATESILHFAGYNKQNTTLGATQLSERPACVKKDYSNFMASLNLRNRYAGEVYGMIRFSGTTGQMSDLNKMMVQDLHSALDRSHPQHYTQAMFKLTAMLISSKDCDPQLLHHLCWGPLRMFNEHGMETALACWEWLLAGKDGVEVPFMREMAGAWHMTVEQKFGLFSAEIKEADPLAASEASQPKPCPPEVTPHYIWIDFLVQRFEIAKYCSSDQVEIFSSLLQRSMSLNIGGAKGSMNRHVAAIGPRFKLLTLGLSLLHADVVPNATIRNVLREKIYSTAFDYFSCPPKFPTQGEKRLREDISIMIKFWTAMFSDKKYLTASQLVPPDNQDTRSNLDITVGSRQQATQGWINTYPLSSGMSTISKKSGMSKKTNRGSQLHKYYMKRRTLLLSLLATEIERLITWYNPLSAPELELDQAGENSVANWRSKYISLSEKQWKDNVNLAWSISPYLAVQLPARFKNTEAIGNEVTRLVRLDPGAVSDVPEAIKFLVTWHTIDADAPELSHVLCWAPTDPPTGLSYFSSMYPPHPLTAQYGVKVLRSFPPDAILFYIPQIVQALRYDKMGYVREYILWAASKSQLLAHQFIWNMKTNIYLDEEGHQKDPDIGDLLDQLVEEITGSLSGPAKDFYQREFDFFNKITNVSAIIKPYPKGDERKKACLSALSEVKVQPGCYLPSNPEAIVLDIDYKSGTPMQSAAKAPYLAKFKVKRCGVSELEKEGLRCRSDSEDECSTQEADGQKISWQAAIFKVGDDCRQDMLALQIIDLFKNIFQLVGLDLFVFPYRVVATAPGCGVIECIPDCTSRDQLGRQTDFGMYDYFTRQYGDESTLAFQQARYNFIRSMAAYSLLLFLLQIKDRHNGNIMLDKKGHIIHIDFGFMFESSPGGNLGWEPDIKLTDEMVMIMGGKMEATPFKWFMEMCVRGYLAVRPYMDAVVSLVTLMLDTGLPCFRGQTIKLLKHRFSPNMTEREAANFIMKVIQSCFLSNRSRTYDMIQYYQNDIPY

[15] = target: kinase named in conditions (Homo sapiens, UniProt O00750); assay: as above; assay type: biochemical; conditions: PIK3C2B (PI3K-C2 beta), 10 μM
kinase named in conditions (Homo sapiens, UniProt O00750), sequence (O00750 whole entry): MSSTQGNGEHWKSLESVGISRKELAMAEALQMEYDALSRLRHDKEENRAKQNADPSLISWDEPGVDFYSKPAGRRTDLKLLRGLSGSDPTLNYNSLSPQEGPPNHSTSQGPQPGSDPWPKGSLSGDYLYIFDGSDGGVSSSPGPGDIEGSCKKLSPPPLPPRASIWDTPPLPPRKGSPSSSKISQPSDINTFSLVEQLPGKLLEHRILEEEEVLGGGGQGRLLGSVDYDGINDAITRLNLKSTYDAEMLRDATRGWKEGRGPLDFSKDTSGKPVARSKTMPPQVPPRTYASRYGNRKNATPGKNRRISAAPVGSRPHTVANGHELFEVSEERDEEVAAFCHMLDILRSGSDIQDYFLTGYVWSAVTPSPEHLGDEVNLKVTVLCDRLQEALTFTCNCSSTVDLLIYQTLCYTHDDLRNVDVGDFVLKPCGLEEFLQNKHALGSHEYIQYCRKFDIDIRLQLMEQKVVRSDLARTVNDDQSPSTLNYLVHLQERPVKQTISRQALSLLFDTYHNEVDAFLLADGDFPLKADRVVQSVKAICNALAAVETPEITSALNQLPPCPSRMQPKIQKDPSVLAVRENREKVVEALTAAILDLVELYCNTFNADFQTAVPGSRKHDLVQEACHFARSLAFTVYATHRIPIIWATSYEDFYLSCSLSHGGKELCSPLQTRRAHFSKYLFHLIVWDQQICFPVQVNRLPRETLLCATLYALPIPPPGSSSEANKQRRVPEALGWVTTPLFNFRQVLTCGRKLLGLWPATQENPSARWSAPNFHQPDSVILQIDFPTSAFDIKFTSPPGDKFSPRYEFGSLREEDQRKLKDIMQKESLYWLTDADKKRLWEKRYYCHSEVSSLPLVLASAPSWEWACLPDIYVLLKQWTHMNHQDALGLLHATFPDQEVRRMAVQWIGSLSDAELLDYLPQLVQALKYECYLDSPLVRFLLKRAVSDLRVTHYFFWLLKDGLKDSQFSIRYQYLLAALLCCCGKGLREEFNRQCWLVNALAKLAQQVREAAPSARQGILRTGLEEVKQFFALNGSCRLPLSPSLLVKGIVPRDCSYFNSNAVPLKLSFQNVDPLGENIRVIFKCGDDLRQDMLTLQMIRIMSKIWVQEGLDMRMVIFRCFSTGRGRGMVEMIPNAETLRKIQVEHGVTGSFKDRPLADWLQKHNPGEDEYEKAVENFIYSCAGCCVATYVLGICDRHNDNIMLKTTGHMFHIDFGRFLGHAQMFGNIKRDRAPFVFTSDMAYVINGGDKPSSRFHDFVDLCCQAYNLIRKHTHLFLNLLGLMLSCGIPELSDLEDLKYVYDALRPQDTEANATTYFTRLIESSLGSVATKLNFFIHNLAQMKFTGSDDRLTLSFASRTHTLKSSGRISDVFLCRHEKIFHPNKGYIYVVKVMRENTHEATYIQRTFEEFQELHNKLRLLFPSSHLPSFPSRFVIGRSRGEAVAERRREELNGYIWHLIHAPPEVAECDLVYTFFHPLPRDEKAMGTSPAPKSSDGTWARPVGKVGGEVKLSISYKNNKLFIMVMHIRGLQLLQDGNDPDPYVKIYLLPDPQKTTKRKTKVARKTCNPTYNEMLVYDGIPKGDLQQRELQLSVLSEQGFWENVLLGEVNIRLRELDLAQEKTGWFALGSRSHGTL

[16] = target: kinase named in conditions (Homo sapiens, UniProt P48736); assay: as above; assay type: biochemical; conditions: PIK3CG (p110 gamma), 10 μM
[17] = target: kinase named in conditions (Homo sapiens, UniProt Q8TF76); assay: as above; assay type: biochemical; conditions: GSG2 (Haspin), 10 μM
[18] = target: kinase named in conditions (Homo sapiens, UniProt Q8NEB9); assay: as above; assay type: biochemical; conditions: PIK3C3 (hVPS34), 10 μM
[19] = target: kinase named in conditions (Homo sapiens, UniProt O75747); assay: as above; assay type: biochemical; conditions: PIK3C2G (PI3K-C2 gamma), 10 μM
[20] = target: kinase named in conditions (Homo sapiens, UniProt Q5S007, G2019S); assay: as above; assay type: biochemical; conditions: LRRK2 G2019S FL, 10 μM
[21] = target: kinase named in conditions (Homo sapiens, UniProt P48426); assay: as above; assay type: biochemical; conditions: PIP4K2A, 10 μM
[22] = target: kinase named in conditions (Homo sapiens, UniProt O15111); assay: as above; assay type: biochemical; conditions: CHUK (IKK alpha), 10 μM
[23] = Stability in dog liver microsomes
[24] = target: panel of 485 distinct kinases; assay: Kinase selectivity panel (SelectScreen); assay type: biochemical
CYP2C8 = target: T1, CYP2C8 (Homo sapiens, UniProt P10632); assay: CYP450 inhibition in HLM
T1 sequence (P10632 1-490): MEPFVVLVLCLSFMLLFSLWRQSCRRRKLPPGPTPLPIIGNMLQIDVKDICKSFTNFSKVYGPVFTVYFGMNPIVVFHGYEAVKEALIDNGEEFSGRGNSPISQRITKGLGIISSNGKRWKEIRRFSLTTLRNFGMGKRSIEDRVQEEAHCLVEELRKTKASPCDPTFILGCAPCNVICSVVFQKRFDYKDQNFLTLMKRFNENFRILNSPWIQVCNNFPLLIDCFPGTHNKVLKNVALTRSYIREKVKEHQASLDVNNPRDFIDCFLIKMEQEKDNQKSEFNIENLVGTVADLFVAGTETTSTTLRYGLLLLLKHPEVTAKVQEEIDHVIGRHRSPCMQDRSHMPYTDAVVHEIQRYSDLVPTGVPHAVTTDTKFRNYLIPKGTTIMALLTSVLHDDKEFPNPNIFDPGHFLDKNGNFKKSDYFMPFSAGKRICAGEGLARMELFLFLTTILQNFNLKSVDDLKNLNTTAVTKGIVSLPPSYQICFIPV

CYP2D6, sequence (P10635 whole entry): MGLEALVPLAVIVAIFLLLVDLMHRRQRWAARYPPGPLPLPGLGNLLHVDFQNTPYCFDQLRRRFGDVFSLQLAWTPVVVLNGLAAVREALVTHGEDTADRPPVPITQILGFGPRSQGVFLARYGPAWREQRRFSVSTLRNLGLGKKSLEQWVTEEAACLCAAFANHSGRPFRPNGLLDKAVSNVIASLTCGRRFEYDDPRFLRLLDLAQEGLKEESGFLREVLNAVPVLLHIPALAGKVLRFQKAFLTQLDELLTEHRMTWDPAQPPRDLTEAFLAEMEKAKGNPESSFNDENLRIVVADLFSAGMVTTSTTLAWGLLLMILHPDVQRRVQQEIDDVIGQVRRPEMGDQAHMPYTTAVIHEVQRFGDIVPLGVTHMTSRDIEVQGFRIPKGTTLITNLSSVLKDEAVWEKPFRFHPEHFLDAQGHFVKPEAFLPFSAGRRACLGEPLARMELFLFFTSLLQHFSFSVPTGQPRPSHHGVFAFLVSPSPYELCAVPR

FC(F)(F)c1c(Cl)ccc(-n2ccnn2)c1Cl [8l, 1-(2,4-Dichloro-3-(trifluoromethyl)phenyl)-1H-1,2,3-triazole]
pIC50 (CYP2D6; read-out: CYP inhibition IC50, 2D6, HLM): < 4.30
pIC50 (CYP2D6; read-out: IC50 CYP2D6/Dextromethorphan, (+)NADPH pre-incubation): < 4.30
pIC50 (CYP2D6; read-out: IC50 CYP2D6/Dextromethorphan, (-)NADPH pre-incubation): < 4.30
Caco-2 AB Papp (Caco-2 cells; apical to basal): 49 10-6 cm/sec
Caco-2 BA Papp (Caco-2 cells; basal to apical): 30 10-6 cm/sec
recovery at 2 h, 2 µM ([1]; Caco-2, pH 7.4, Caco-2 A to B % Recovery): 89.1%
Papp at 2 h, 2 μM ([1]; Caco-2, pH 7.4, Caco-2 AB Papp, apical to basal): 49.4 ×10⁻⁶ cm/s
recovery at 2 h, 2 µM ([1]; Caco-2, pH 7.4, Caco-2 B to A % Recovery): 102%
Papp at 2 h, 2 μM ([1]; Caco-2, pH 7.4, Caco-2 BA Papp, basal to apical): 30.3 ×10⁻⁶ cm/s
inhibition at 10 µM [2]: -25%
inhibition at 10 µM [3]: 11%
inhibition at 10 µM [4]: -3%
inhibition at 10 µM [5]: -3%
inhibition at 10 µM [6]: 0%
inhibition at 10 µM ([7]; CDK4/cyclin D1, 10 μM): 6%
inhibition at 10 µM ([7]; CDK4/cyclin D3, 10 μM): 4%
% Inhibition mean ([8]; DAPK1, 10 μM): -8%
% Inhibition mean ([8]; IRAK1, 10 μM): -10%
% Inhibition mean ([8]; LRRK2, 10 μM): -12%
% Inhibition mean ([8]; LRRK2 G2019S, 10 μM): 1%
% Inhibition mean ([8]; LRRK2 I2020T, 10 μM): 1%
% Inhibition mean ([8]; LRRK2 R1441C, 10 μM): 1%
% Inhibition mean ([8]; SPHK1, 10 μM): -8%
% Inhibition mean ([8]; SPHK2, 10 μM): 0%
inhibition at 10 µM [9]: 1%
inhibition at 10 µM [10]: 1%
inhibition at 10 µM ([11]; PIK3CA/PIK3R1 (p110 alpha/p85 alpha)): -6%
inhibition at 10 µM ([11]; PIK3CA/PIK3R3 (p110 alpha/p55 gamma)): 0%
inhibition at 10 µM [12]: -3%
inhibition at 10 µM [13]: -2%
inhibition at 10 µM [14]: -4%
inhibition at 10 µM [15]: 8%
inhibition at 10 µM [16]: -15%
inhibition at 10 µM [17]: 10%
inhibition at 10 µM [18]: -5%
inhibition at 10 µM [19]: 11%
inhibition at 10 µM [20]: 15%
inhibition at 10 µM [21]: -1%
inhibition at 10 µM [22]: 4%
Liver microsome stability Cli, DLM [23]: 10.8 μL/min/mg protein
half-life ([23]; dog, liver microsomes): 2.14 h
kinases with >50% inhibition ([24]; @10 μM): 0/485
inhibition for all kinases of the panel ([24]; at 10 μM): < 50%
pIC50 (CYP2C8; read-out: CYP inhibition IC50, 2C8, HLM): < 4.30
pIC50 (CYP2C8; read-out: IC50 CYP2C8/Amodiaquine, (+)NADPH pre-incubation): < 4.30
pIC50 (CYP2C8; read-out: IC50 CYP2C8/Amodiaquine, (-)NADPH pre-incubation): < 4.30
